The values below are quoted from earlier work in patent US11938184B2, “Compositions and methods for treating Crohn's Disease and related conditions and infections” (priority 2012, dated 2024).

In this series the test system is Crohn's disease fistulae.

Take infliximab: the response in fistulae (ACCENT 2 trial, after 14 weeks) is listed as 60%. Besides, where the note is “ACCENT 2 trial, at 1 year”, the fistulae maintaining closure was 36%. In addition, where the note is “infliximab alone”, the “healing of perianal fistulae” value is on record as 46-78% and the “healing of recto-vaginal fistulae” value is 14-30%. Besides, where the note is “initial phase II and subsequent phase III trials, 296 patients”, the fistulae initially healed was 56-68%. Moreover, the “median duration of fistula closure” value (normally requiring 3 doses of infliximab) was “approximately 3 months”.
